Patent US7345070B2, “Peroxisome proliferator activated receptor agonists” (Eli Lilly and Company, priority 2000, dated 2008)

Key:
huPPARα [1] = assay: Cotransfection assay in CV-1 cells, huPPARα; format: cell-based, human; settings: GAL4 chimeric system, relative to PPARα agonist reference molecule
Method: (§1) DNA-dependent binding (ABCD binding) was carried out using SPA technology with PPAR receptors. Tritium-labeled PPARα and PPARγ agonists were used as radioligands for generating displacement curves and IC50 values with compounds of the invention. Cotransfection assays were carried out in CV-1 cells. The reporter plasmid contained an acylCoA oxidase (AOX) PPRE and TK promoter upstream of the luciferase reporter cDNA. Appropriate PPARs and RXRα were constitutively expressed using plasmids containing the CMV promoter. […] In order to eliminate such interference, a GAL4 chimeric system was used in which the DNA binding domain of the transfected PPAR was replaced by that of GAL4, and the GAL4 response element was utilized in place of the AOX PPRE. Cotransfection efficacy was determined relative to PPARα agonist and PPARγ agonist reference molecules. Efficacies were determined by computer fit to a concentration-response curve, or in some cases at a single high concentration of agonist (10 μM). For binding or cotransfection studies with receptors other than PPARs, similar assays were carried out using appropriate ligands, receptors, reporter constructs, etc., for that particular receptor.
(§2) These studies were carried out to evaluate the ability of compounds of the invention to bind to and/or activate various nuclear transcription factors, particularly huPPARα (“hu” indicates “human”) and huPPARγ. These studies provide in vitro data concerning efficacy and selectivity of compounds of the invention. Furthermore, binding and cotransfection data for compounds of the invention were compared with corresponding data for marketed compounds that act on either huPPARα or huPPARγ.

huPPARα [2] = target: T1, huPPARα (Homo sapiens, UniProt Q07869); assay: DNA-dependent binding (ABCD binding) using SPA technology, huPPARα; settings: SPA displacement of tritium-labeled PPARα agonist radioligand
T1 sequence (Q07869 1-468): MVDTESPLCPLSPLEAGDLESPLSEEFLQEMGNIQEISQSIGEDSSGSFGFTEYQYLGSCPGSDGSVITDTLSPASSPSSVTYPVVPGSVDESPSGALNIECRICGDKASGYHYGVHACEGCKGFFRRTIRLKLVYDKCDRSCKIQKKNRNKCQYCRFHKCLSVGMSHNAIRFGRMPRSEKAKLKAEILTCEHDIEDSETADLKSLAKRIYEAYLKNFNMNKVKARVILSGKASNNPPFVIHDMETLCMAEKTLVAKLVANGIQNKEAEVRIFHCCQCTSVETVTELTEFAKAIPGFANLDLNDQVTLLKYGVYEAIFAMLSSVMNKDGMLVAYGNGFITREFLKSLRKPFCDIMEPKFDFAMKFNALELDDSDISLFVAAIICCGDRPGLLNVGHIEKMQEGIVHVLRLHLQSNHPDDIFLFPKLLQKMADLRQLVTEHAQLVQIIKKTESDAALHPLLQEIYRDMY
T1 sequence (P19793 1-462 partner): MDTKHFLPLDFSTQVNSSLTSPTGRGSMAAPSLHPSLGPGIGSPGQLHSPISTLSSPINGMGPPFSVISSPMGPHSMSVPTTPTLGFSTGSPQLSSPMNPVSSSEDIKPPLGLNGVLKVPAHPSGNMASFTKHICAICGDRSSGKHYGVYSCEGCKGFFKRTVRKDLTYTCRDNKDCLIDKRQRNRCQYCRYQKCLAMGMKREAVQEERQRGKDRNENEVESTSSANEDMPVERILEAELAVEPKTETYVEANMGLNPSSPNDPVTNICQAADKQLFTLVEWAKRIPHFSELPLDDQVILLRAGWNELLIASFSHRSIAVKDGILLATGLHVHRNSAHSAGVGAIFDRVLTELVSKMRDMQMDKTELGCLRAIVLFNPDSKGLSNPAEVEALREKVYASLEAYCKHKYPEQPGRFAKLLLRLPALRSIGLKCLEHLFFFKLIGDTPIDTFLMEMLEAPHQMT
Method: as §1, §2

With `Cc1oc(C2CCCCC2)nc1CCOc1ccc(CC(C)(Oc2cccc(F)c2)C(=O)O)cc1` (stereo not drawn) [Example 23, 2-(3-Fluoro-phenoxy)-2-methyl-3-{4-[2-(5-methyl-2-cyclohexyl-oxazol-4-yl)-ethoxy]-phenyl}-propionic acid] the “huPPARα CTF Efficacy” value (huPPARα [1]) was 40% and the IC50 (huPPARα [2]) was 63 nM.
For `Cc1oc(-c2ccccc2)nc1CCOc1ccc(CC(C)(Oc2ccc(Cl)cc2)C(=O)O)cc1` (stereo not drawn) [Example 29, 2-(4-Chloro-phenoxy)-2-methyl-3-{4-[2-(5-methyl-2-phenyl-oxazol-4-yl)-ethoxy]-phenyl}-propionic acid], the “huPPARα CTF Efficacy” value (huPPARα [1]) was 65% and the IC50 (huPPARα [2]) was 116 nM.
With `Cc1oc(-c2cccs2)nc1CCOc1ccc(CC(C)(Oc2cccc(C(C)(C)C)c2)C(=O)O)cc1` (stereo not drawn) [Example 25, 2-(3-tert-Butyl-phenoxy)-2-methyl-3-{4-[2-(5-methyl-2-thiophen-2-yl-oxazol-4-yl)-ethoxy]-phenyl}-propionic acid] the “huPPARα CTF Efficacy” value (huPPARα [1]) was 95% and the IC50 (huPPARα [2]) was 73 nM.
With `Cc1oc(-c2ccccc2)nc1CCOc1ccc(CC(C)(Oc2ccc3c(c2)OCO3)C(=O)O)cc1` (stereo not drawn) [Example 78, 2-(Benzo[1,3]dioxol-5-yloxy)-2-methyl-3-{4-[2-(5-methyl-2-phenyl-oxazol-4-yl)-ethoxy]-phenyl}-propionic acid] the “huPPARα CTF Efficacy” value (huPPARα [1]) was 52% and the IC50 (huPPARα [2]) was 75 nM.
In the case of `Cc1ccc(OC(C)(Cc2ccc(OCCc3nc(-c4cccs4)oc3C)cc2)C(=O)O)cc1` (stereo not drawn) [Example 40, 2-Methyl-3-{4-[2-(5-methyl-2-thiophen-2-yl-oxazol-4-yl)-ethoxy]-phenyl}-2-p-tolyloxy-propionic acid], the “huPPARα CTF Efficacy” value (huPPARα [1]) is reported as 77% and the IC50 (huPPARα [2]) is reported as 50 nM.
With `Cc1oc(C2CCCCC2)nc1CCOc1ccc(CC(C)(Oc2ccc(OC(F)(F)F)cc2)C(=O)O)cc1` (stereo not drawn) [Example 44, 3-{4-[2-(2-Cyclohexyl-5-methyl-oxazol-4-yl)-ethoxy]-phenyl}-2-methyl-2-(4-trifluoromethoxy-phenoxy)-propionic acid] the “huPPARα CTF Efficacy” value (huPPARα [1]) was 54% and the IC50 (huPPARα [2]) was 157 nM.
In the case of `Cc1oc(CCc2ccccc2)nc1CCOc1ccc(C[C@](C)(Oc2ccccc2)C(=O)O)cc1` [Example 86, (S)-2-Methyl-3-{4-[2-(5-methyl-2-phenethyl-oxazol-4-yl)-ethoxy]-phenyl}-2-phenoxy-propionic acid], the “huPPARα CTF Efficacy” value (huPPARα [1]) is reported as 24% and the IC50 (huPPARα [2]) is reported as 55 nM.
For `COc1cccc(OC(C)(Cc2ccc(OCCc3nc(C4CCCCC4)oc3C)cc2)C(=O)O)c1` (stereo not drawn) [Example 76, 3-{4-[2-(2-Cyclohexyl-5-methyl-oxazol-4-yl)-ethoxy]-phenyl}-2-(3-methoxy-phenoxy)-2-methyl-propionic acid], the “huPPARα CTF Efficacy” value (huPPARα [1]) was 63% and the IC50 (huPPARα [2]) was 76 nM.
With `Cc1oc(-c2cccs2)nc1CCOc1ccc(CC(C)(Oc2ccc(C(C)(C)C)cc2)C(=O)O)cc1` (stereo not drawn) [Example 17, 2-Methyl-3-{4-[2-(5-methyl-2-thiophen-2-yl-oxazol-4-yl)-ethoxy]-phenyl}-2-(4-tert-butylphenoxy)-propionic acid] the “huPPARα CTF Efficacy” value (huPPARα [1]) was 129% and the IC50 (huPPARα [2]) was 68 nM.
For `COc1ccc(OC(C)(Cc2ccc(OCCc3nc(-c4cccs4)oc3C)cc2)C(=O)O)cc1` (stereo not drawn) [Example 19, 2-Methyl-3-{4-[2-(5-methyl-2-thiophen-2-yl-oxazol-4-yl)-ethoxy]-phenyl}-2-(4-methoxyphenoxy)-propionic acid], the “huPPARα CTF Efficacy” value (huPPARα [1]) was 64% and the IC50 (huPPARα [2]) was 85 nM.
For `Cc1oc(C2CCCCC2)nc1CCOc1ccc(CC(C)(Oc2ccc(C(F)(F)F)cc2)C(=O)O)cc1` (stereo not drawn) [Example 52, 3-{4-[2-(2-Cyclohexyl-5-methyl-oxazol-4-yl)-ethoxy]-phenyl}-2-methyl-2-(4-trifluoromethyl-phenoxy)-propionic acid], the “huPPARα CTF Efficacy” value (huPPARα [1]) was 108% and the IC50 (huPPARα [2]) was 62 nM.
For `Cc1oc(C2CCCCC2)nc1CCOc1ccc(CC(C)(Oc2ccc(C3CCCCC3)cc2)C(=O)O)cc1` (stereo not drawn) [Example 34, 3-{4-[2-(2-Cyclohexyl-5-methyl-oxazol-4-yl)-ethoxy]-phenyl}-2-(4-cyclohexyl-phenoxy)-2-methyl-propionic acid], the “huPPARα CTF Efficacy” value (huPPARα [1]) was 112% and the IC50 (huPPARα [2]) was 91 nM.
